Tested on: IFN-γ
Assay: Serum IFN-γ levels following tocotrienol supplementation in mouse models
Type: in vivo

Q: With tocotrienol as the substance, how does the “serum levels of interferon-gamma (IFN-γ)” value read?
A: significantly increased
